# Measurements as given in patent publication US6656906B1, “Hybrid polypeptides with enhanced pharmacokinetic properties” (Trimeris, Inc., priority 1998, dated 2003).
# Read-outs that look alike come from different tables or passages of the source.
# Assays:
# [1] = Rat pharmacokinetic studies, IV, fluorescence HPLC of plasma; format: in vivo, CD rats; settings: IV, male CD rats
# Method: 250-300 g male CD rats, double jugular catheter, obtained from Charles River Laboratories were used. Peptides were injected in one jugular catheter in a volume of 200 μl of peptide solution (approximately 3.75 mg/ml), dosing solution concentration was determined using the Edelhoch method, (Edelhoch, 1967, Biochemistry 6:1948-1954) method and adjusted based on animal weight such that each animal received a dose of 2.5 mg/kg). Approximately 250-300 μl of blood was removed at predetermined time intervals (0, 15, 30 min and 1, 2, 4, 6, and 8 hours) and added to EDTA capiject tubes. Plasma was removed from pelleted cells upon centrifugation and either frozen or immediately processed for fluorescence HPLC analysis.
# 100 μl of sample plasma was added to 900 μl of precipitation buffer (acetonitrile, 1.0% TFA, detergent) resulting in precipitation of the majority of plasma proteins. Following centrifugation at 10,000 rpm for 10 min, 400 μl of the supernatant was removed and added to 600 μl of HPLC grade water. Serial dilutions were performed as dictated by concentration of peptide present in each sample in dilution buffer comprised of 40% precipitation buffer and 60% HPLC water. In addition to sample dilutions, serial dilutions of dosing solution were performed in buffer as well as in plasma and used to generate a standard curve relating peak area to known concentration of peptide. This curve was then used to calculate concentration of peptide in plasma taking into account all dilutions performed and quantity injected onto column.
# [2] = Plasma and lymphatic pharmacokinetic analysis after IV bolus; format: in vivo, rats; settings: for clearance / AUC(0-inf) / Cmax / AUC(0-t) / half-life: rat, in vivo; for AUC(0-t): read-out: AUC(0-6h); for half-life: iv, IV bolus, read-out: t½, elimination (converted)
# Method: For plasma and lymphatic pharmacokinetic analysis of T1249 in rats, T1249 was prepared as a sterile solution in bicarbonate buffer and administered as a single dose, bolus intravenous injection into the lateral tail vain at a dose of […]. Blood was collected from the animal from an in-dwelling jugular catheter. Samples were collected immediately after dosing and at 5, 15, and 30 minutes, and 1, 2, 4, and 6 hours after drug administration. For the analysis of lymphatic fluids, samples were taken immediately before dosing and every 20 minutes for the first six hours after dosing. Lymphatic fluid was collected from a catheter placed directly into the thoracic lymphatic duct as previously described (Kirkpatrick and Silver, 1970, The Journal of Surgical Research 10:147-158).
# [3] = Single-dose administration to primates (SC, IM, IV), plasma pharmacokinetics; format: in vivo, cynomolgus monkeys; settings: for bioavailability / half-life / AUC(0-inf) / Cmax / Tmax / AUC(0-t): in vivo; for bioavailability: read-out: FR (%) bioavailability relative to intravenous administration; for half-life: read-out: t½,terminal (converted); for AUC(0-t): read-out: AUC(0-24)
# Method: A washout period of at least three days separated each dosing day. […] The actual milligram amount of test article was calculated using the peptide content that was determined for the batch administered.
# Endpoints for analysis included cageside observations, physical examinations and body weight. For the IV phase of the study, blood samples were collected into heparinized tubes at the following time points: immediately after dosing, 0.25, 0.5, 1.5, 3, 6, 12, and 24 hours after dosing. For the IM and SC phases of the study blood samples were collected in heparinized tubes from each animal at the following time points: 0.5, 1, 2, 3, 6, 12, and 24 hours after dosing. Plasma samples were prepared within one hour of collection and flash frozen in liquid nitrogen. Samples analysis was performed using a PcAb ECLIA assay (Blackburn, G. et al., 1991, Clin. Chem. 37:1534-1539; Deaver, D., 1995, Nature 377:758).
# [4] = Penetration into cerebrospinal fluid; format: in vivo, rats; settings: all measurable time points, single dose; below limit of detection
# [5] = test system: Molt 4, CEM cells
# [6] = cynomolgus monkey, IM (0.8 mg/kg)
# [7] = cynomolgus monkey, IV (0.8 mg/kg)
# [8] = cynomolgus monkey, SC (0.4 mg/kg)
# [9] = cynomolgus monkey, SC (0.8 mg/kg)
# [10] = cynomolgus monkey, SC (1.6 mg/kg)
structure (smiles),measurement,setting,value
CC[C@H](C)[C@H](NC(=O)[C@H](CCC(N)=O)NC(=O)[C@H](C)NC(=O)[C@H](CCC(N)=O)NC(=O)[C@H](CCC(=O)O)NC(=O)[C@H](CC(C)C)NC(=O)[C@H](CC(C)C)NC(=O)[C@H](C)NC(=O)[C@@H](NC(=O)[C@@H](NC(=O)[C@H](CCCCN)NC(=O)[C@H](CCC(N)=O)NC(=O)[C@H](CCC(=O)O)NC(=O)[C@H](Cc1c[nH]c2ccccc12)NC(=O)[C@H](CCC(=O)O)NC(=O)[C@H](CCC(N)=O)NC(=O)[C@H](Cc1c[nH]c2ccccc12)NC(C)=O)[C@@H](C)CC)[C@@H](C)O)C(=O)N[C@@H](CCC(N)=O)C(=O)N[C@@H](CCC(N)=O)C(=O)N[C@@H](CCC(=O)O)C(=O)N[C@@H](CCCCN)C(=O)N[C@@H](CC(N)=O)C(=O)N[C@@H](CCC(=O)O)C(=O)N[C@@H](Cc1ccc(O)cc1)C(=O)N[C@@H](CCC(=O)O)C(=O)N[C@@H](CC(C)C)C(=O)N[C@@H](CCC(N)=O)C(=O)N[C@@H](CCCCN)C(=O)N[C@@H](CC(C)C)C(=O)N[C@@H](CC(=O)O)C(=O)N[C@@H](CCCCN)C(=O)N[C@@H](Cc1c[nH]c2ccccc12)C(=O)N[C@@H](C)C(=O)N[C@@H](CO)C(=O)N[C@@H](CC(C)C)C(=O)N[C@@H](Cc1c[nH]c2ccccc12)C(=O)N[C@@H](CCC(=O)O)C(=O)N[C@@H](Cc1c[nH]c2ccccc12)C(=O)N[C@@H](Cc1ccccc1)C(N)=O [T1249],beta-phase half-life relative to T20,[1],nearly three times greater than T20
same,total AUC relative to T20,[1],nearly three times greater than T20
same,time to equilibration of lymphatic system with the plasma reservoir,[2]; after IV administration,within approximately one hour
same,clearance,[2]; Lymph,0.192 mL/min
same,AUC(0-inf),"[2]; Lymph, averages exclude Rat #1",449 µg·h/mL
same,Cmax,"[2]; Lymph, averages exclude Rat #1",155000 ng/mL
same,AUC(0-t),"[2]; Lymph, averages exclude Rat #1",411 µg·h/mL
same,AUC(0-inf),"[2]; Lymph, averages include Rat #1",390 µg·h/mL
same,Cmax,"[2]; Lymph, averages include Rat #1",133000 ng/mL
same,AUC(0-t),"[2]; Lymph, averages include Rat #1",348 µg·h/mL
same,AUC(0-inf),[2]; Plasma,598 µg·h/mL
same,Cmax,[2]; Plasma,291000 ng/mL
same,clearance,[2]; Plasma,0.13 mL/min
same,AUC(0-t),[2]; Plasma,506 µg·h/mL
same,half-life,[2]; Lymph,1.3 ± 0.27 h
same,half-life,[2]; Plasma,2.6 ± 0.41 h
same,"t½,terminal",[3]; IM (0.8 mg/kg),5.57 h
same,"t½,terminal","[3]; IV (0.8 mg/kg), 0.8 mg/kg",5.35 h
same,"t½,terminal","[3]; SC (0.8 mg/kg), 0.8 mg/kg",4.83 h
same,linearity of pharmacokinetics,"[3]; SC administration, 0.4-1.6 mg/kg",linear pharmacokinetics
same,level at 24 h,"[3]; both sexes, cynomolgus monkey, plasma, 24 hours after SC and IV administration, read-out: quantifiable plasma levels at 24 hours",> 500 ng/mL
same,bioavailability,"[3]; cynomolgus monkey, 0.8 mg/kg, IM (0.8 mg/kg)",~64%
same,bioavailability,"[3]; cynomolgus monkey, 0.8 mg/kg, SC (0.8 mg/kg)",~92%
same,half-life,"[3]; cynomolgus monkey, im, 0.8 mg/kg, IM (0.8 mg/kg)",5.6 h
same,half-life,"[3]; cynomolgus monkey, iv, 0.8 mg/kg, IV (0.8 mg/kg)",5.4 h
same,half-life,"[3]; cynomolgus monkey, sc, 0.4 mg/kg, SC (0.4 mg/kg)",6.23 h
same,half-life,"[3]; cynomolgus monkey, sc, 0.8 mg/kg, SC (0.8 mg/kg)",4.8 h
same,half-life,"[3]; cynomolgus monkey, sc, 1.6 mg/kg, SC (1.6 mg/kg)",5.55 h
same,AUC(0-inf),[3]; [6],59.5 µg·h/mL
same,Cmax,[3]; [6],6370 ng/mL
same,Tmax,[3]; [6],2.32 h
same,AUC(0-t),[3]; [6],56.4 µg·h/mL
same,AUC(0-inf),[3]; [7],92.5 µg·h/mL
same,Cmax,[3]; [7],26700 ng/mL
same,AUC(0-t),[3]; [7],87.4 µg·h/mL
same,AUC(0-inf),[3]; [8],40.9 µg·h/mL
same,Cmax,[3]; [8],3170 ng/mL
same,Tmax,[3]; [8],3.97 h
same,AUC(0-t),[3]; [8],37.5 µg·h/mL
same,AUC(0-inf),[3]; [9],85.3 µg·h/mL
same,Cmax,[3]; [9],6850 ng/mL
same,Tmax,[3]; [9],4.58 h
same,AUC(0-t),[3]; [9],8.12 µg·h/mL
same,AUC(0-inf),[3]; [10],181 µg·h/mL
same,Cmax,[3]; [10],13300 ng/mL
same,Tmax,[3]; [10],4.72 h
same,AUC(0-t),[3]; [10],168 µg·h/mL
same,concentration in cerebrospinal fluid (CSF),[4],< 2.0 ng T1249/ml CSF
same,cytotoxicity in vitro,[5],No overt evidence of T1249 cytotoxicity
